Results from patent US20050084908A1, “Methods for detecting binding of low-molecular-weight compound and its binding partner molecule” (CHUGAI SEIYAKU KABUSHIKI KAISHA, priority 2000, published 2005).
Where “and” joins values, the source holds several entries; their conditions need not be identical. Equal entries are not always repeated.

T1: Recombinant human Vitamin D3 receptor (VDR) (Homo sapiens, UniProt P11473)
T1 construct: purchased Pan Vera Corp
T1 sequence (P11473 1-427): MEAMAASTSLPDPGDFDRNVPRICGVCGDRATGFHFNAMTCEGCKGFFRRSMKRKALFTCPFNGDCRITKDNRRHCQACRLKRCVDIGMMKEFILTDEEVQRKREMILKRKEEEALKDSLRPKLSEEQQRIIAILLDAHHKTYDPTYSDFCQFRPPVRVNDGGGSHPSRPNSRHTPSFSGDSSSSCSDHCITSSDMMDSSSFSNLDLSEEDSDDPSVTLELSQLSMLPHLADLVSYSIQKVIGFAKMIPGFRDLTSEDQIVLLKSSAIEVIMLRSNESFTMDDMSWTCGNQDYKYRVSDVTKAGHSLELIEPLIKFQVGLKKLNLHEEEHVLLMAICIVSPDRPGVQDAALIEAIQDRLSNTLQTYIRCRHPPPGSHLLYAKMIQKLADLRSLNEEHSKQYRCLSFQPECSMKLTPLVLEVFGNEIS


What was measured:
[1] = molecular target: T1, Recombinant human Vitamin D3 receptor (VDR); experiment: Inhibition of binding of immobilized ED-533 to VDR (SPR, BIACORE 3000); details: VDR 100 nM; for inhibitory activity compared with 1,25(OH)2 vitamin D3 (in words): compound 0, 10, 100 or 1000 nM, FIG. 7; for IC50: test compound 0-1000 nM, 1 hr room temperature, 5% DMSO
Description: HBS-EP containing 5% DMSO was used as a running buffer, and the flow rate was set at 5 μl/min. Carboxyl groups of carboxymethyl dextran on the Sensor Chip CM5 were activated by injecting 100 μl of 0.05 M N-hydroxysuccinimide (NHS)/0.2 M N-ethyl-N′-(3-dimethyl aminopropyl)carbodiimide (EDC). […] Aliquots (10 to 40 μl) were injected onto the chip and immobilized by the amine coupling method. Excessive activated groups were blocked by injecting 100 μl of ethanolamine, pH 8.5. Non-covalently bound substances were washed out by injecting 10 μl each of 50% aqueous DMSO solution and 50% PrOH/10% DMSO/50 mM HCl.
The structural formulae of OCT and ED-71 are represented by formulae (2) and (3), respectively. [drawing 2]

[2] = Conventional RI method binding activity assay using labeled oestradiol; details: 100% = [6,7-3H]oestradiol bound to all the ERLBD added, single replicate values
Excerpt: FIG. 5 schematically illustrates a conventional binding assay using a ligand labeled with radioisotope (RI). ^3H-ligand stands for [6,7-^3H]estradiol, MBP-LBD for MBP-ERLBD, and LBD for ERLBD After the ligand and the binding molecule are mixed and allowed to stand at room temperature for 6 hr, the resulting mixture is subjected to the Bound/Free separation procedure. The amount of [6,7-^3H]estradiol bound to MBP-ERLBD or ERLBD is detected with a scintilator.
The binding activity of [6,7-^3H]oestradiol (Amersham Pharmacia Biotech) to a full-length human estrogen receptor-α, ERLBD, and MBP-ERLBD was assayed according to a conventional method using a ligand labeled with radioisotope (RI) (Sasson, S. and Notides, A. C. (1988) Mol. Endcrinol., Vol. 2, No. 4, p307-312). The reaction is schematically illustrated in FIG. 5. The RI value obtained when [6,7-^3H]oestradiol bound to all the ERLBD added to the assay system was taken as 100%, and the relative binding activity was calculated. A full-length human estrogen receptor-α and MBP-ERLBD (lot #87 and #90) were used as the binding molecule. […] The method of the present invention uses proteins as the binding molecule, and the reaction time is thus short, so that the binding activity can be measured with a good reproducibility without causing a decrease in the binding activity.

[3] = BIACORE (SPR) binding activity assay of MBP-ERLBD and ERLBD to immobilized 7α-(9-aminononyl)estradiol; details: analyte 20 μg/ml, 10 μl injection; single values of duplicate (n = 2)
Description: Immobilization of 7α-(9-aminononyl)estradiol on the Sensor Chip CM5 (Pharmacia) was carried out as follows. HBS was used as a continuous flow buffer, and the flow rate was set at 5 μl/min. Carboxyl groups of carboxymethyl dextran on the Sensor Chip CM5 were activated by injecting 100 μl of 0.05 M N-hydroxysuccinimide (NHS)/0.2 M N-ethyl-N′-(3-dimethyl aminopropyl)-carbodiimide (EDC). 7α-(9-aminononyl)estradiol (approx. 7 mg/ml in benzene, approx. 4.5 mg/ml in 2-PrOH) was first diluted 10-fold in EtOH, further diluted 10-fold using 10 mM Na-acetate buffer, pH 4.0 or pH 4.5. Aliquots (10 to 50 μl) were injected onto the chip and immobilized by the amine coupling method. Then, excessive activated groups were blocked by injecting 100 μl of ethanolamine, pH 8.5. Further, non-covalently bound substances were washed out by 10 μl of 0.1 M Gly-HCl buffer, pH 2.5 and 10 mM HCl.
The reaction principle was illustrated in FIG. 2. MBP-ERLBD (20 μg/ml, 10 μl) or ERLBD (20 μg/ml, 10 μl) which were prepared by the above-described method were injected onto the chip to assay their binding activities to the immobilized 7α-(9-aminononyl)estradiol. Regeneration and washing of sensor chips were performed by injecting 10 μl of 7% propanol/50 mM HCl.
For the purpose of measuring the reproducibility and lot-to-lot variations of the binding activity assay, the binding activity assay was performed using different lots of MBP-ERLBD and ERLBD preparations to compare assay values in duplicate. The binding levels of MBP-ERLBD (Lot #90) (20 μg/ml, 10 μl) were 2124.9 and 2048.9 RU, indicating a high reproducibility (% CV=2.6%) (Table 1). Highly reproducible data were also obtained for ERLBD (Lots. #110, #111, #112, and #113) (20 μg/ml, 10 μl each), as shown in Table 1. […] The results also indicate that binding activities can be accurately compared lot-to-lot variations, and that this method may be applied to the product quality control, etc. This method has also enabled easily monitoring active fractions in the purification process of ERLBD, leading to shortening of its preparation time. Results of examination of the reproducibility of the binding activity assay and the comparison thereof among sample lots are summarized in Table 1.
Using MBP-ERLBD (Lot #90) and ERLBD (Lots. #110, #111, #112, and #113) as the binding molecule, the binding activity was assayed in duplicate. RU is the unit of surface plasmon resonance intensity. % CV represents the dispersion in duplicate, indicating the larger the value, the greater the dispersion.

Molecule | inhibitory activity compared with 1,25(OH)2 vitamin D3 (in words) [1] | IC50 [1] [nM] | Response [RU], binding level to immobilized 7α-(9-aminononyl)estradiol [3] | Relative activity (%), binding of [6,7-3H]oestradiol [2]
C=C1/C(=C\C=C2/CCC[C@]3(C)[C@@H]([C@H](C)OCCC(C)(C)O)CC[C@@H]23)C[C@@H](O)C[C@@H]1O [OCT, 1α,25-dihydroxy-22-oxavitamin D3] | almost the same inhibitory activities | 110 |  | 
ERLBD: partial sequence containing the ligand binding domain of human estrogen receptor-α (Ala288-Arg555) (protein, UniProt P03372 288-555, looked up, fragment) AANLWPSPLMIKRSKKNSLALSLTADQMVSALLDAEPPILYSEYDPTRPFSEASMMGLLTNLADRELVHMINWAKRVPGFVDLTLHDQVHLLECAWLEILMIGLVWRSMEHPGKLLFAPNLLLDRNQGKCVEGMVEIFDMLLATSSRFRMMNLQGEEFVCLKSIILLNSGVYTFLSSTLKSLEEKDHIHRVLDKITDTLIHLMAKAGLTLQQQHQRLAQLLLILSHIRHMSNKGMEHLYSMKCKNVVPLYDLLLEMLDAHRLHAPTSR |  |  | about 2000 RU | about 10%
ERLBD #113: lot of purified ERLBD (protein, UniProt P03372 288-555, looked up, fragment) AANLWPSPLMIKRSKKNSLALSLTADQMVSALLDAEPPILYSEYDPTRPFSEASMMGLLTNLADRELVHMINWAKRVPGFVDLTLHDQVHLLECAWLEILMIGLVWRSMEHPGKLLFAPNLLLDRNQGKCVEGMVEIFDMLLATSSRFRMMNLQGEEFVCLKSIILLNSGVYTFLSSTLKSLEEKDHIHRVLDKITDTLIHLMAKAGLTLQQQHQRLAQLLLILSHIRHMSNKGMEHLYSMKCKNVVPLYDLLLEMLDAHRLHAPTSR |  |  | 1613.7 RU and 1597.3 RU | 
ERLBD #112: lot of purified ERLBD (protein, UniProt P03372 288-555, looked up, fragment) AANLWPSPLMIKRSKKNSLALSLTADQMVSALLDAEPPILYSEYDPTRPFSEASMMGLLTNLADRELVHMINWAKRVPGFVDLTLHDQVHLLECAWLEILMIGLVWRSMEHPGKLLFAPNLLLDRNQGKCVEGMVEIFDMLLATSSRFRMMNLQGEEFVCLKSIILLNSGVYTFLSSTLKSLEEKDHIHRVLDKITDTLIHLMAKAGLTLQQQHQRLAQLLLILSHIRHMSNKGMEHLYSMKCKNVVPLYDLLLEMLDAHRLHAPTSR |  |  | 1255.7 RU and 1203.9 RU | 
ERLBD #110: lot of purified ERLBD (protein, UniProt P03372 288-555, looked up, fragment) AANLWPSPLMIKRSKKNSLALSLTADQMVSALLDAEPPILYSEYDPTRPFSEASMMGLLTNLADRELVHMINWAKRVPGFVDLTLHDQVHLLECAWLEILMIGLVWRSMEHPGKLLFAPNLLLDRNQGKCVEGMVEIFDMLLATSSRFRMMNLQGEEFVCLKSIILLNSGVYTFLSSTLKSLEEKDHIHRVLDKITDTLIHLMAKAGLTLQQQHQRLAQLLLILSHIRHMSNKGMEHLYSMKCKNVVPLYDLLLEMLDAHRLHAPTSR |  |  | 1825.8 RU and 1815.0 RU | 
ERLBD #111: lot of purified ERLBD (protein, UniProt P03372 288-555, looked up, fragment) AANLWPSPLMIKRSKKNSLALSLTADQMVSALLDAEPPILYSEYDPTRPFSEASMMGLLTNLADRELVHMINWAKRVPGFVDLTLHDQVHLLECAWLEILMIGLVWRSMEHPGKLLFAPNLLLDRNQGKCVEGMVEIFDMLLATSSRFRMMNLQGEEFVCLKSIILLNSGVYTFLSSTLKSLEEKDHIHRVLDKITDTLIHLMAKAGLTLQQQHQRLAQLLLILSHIRHMSNKGMEHLYSMKCKNVVPLYDLLLEMLDAHRLHAPTSR |  |  | 1032.0 RU and 990.3 RU | 

More lines, main results first:

inhibitory activity compared with 1,25(OH)2 vitamin D3 (in words) [1] | IC50 [1] [nM] | Response [RU], binding level to immobilized 7α-(9-aminononyl)estradiol [3] | Molecule | Relative activity (%), binding of [6,7-3H]oestradiol [2]
almost the same inhibitory activities | 520 |  | C=C1/C(=C\C=C2/CCC[C@@]3(C)C2CC[C@@H]3[C@H](C)CCCC(C)(O)CCCCCCCCCCN)C[C@@H](O)C[C@@H]1O (stereo partly drawn) [ED-533, (1α,3β,5Z,7E)-25-(10-aminodecanyl)-27-nor-9,10-secocholesta-5,7,10(19)-triene-1,3,25-triol] | 
almost the same inhibitory activities | 500 |  | C=C1/C(=C\C=C2/CCC[C@]3(C)[C@@H]([C@H](C)CCCC(C)(C)O)CC[C@@H]23)C[C@@H](O)[C@@H](OCCCO)[C@@H]1O [ED-71, 2β-(3-Hydroxypropoxy)-1α,25-dihydroxyvitamin D3] | 
